Earlier results as cited in US12544394B2, “Compositions and methods for treatment of fibrosis” (priority 2017, dated 2026).

Legend:
liver fibrosis = details: DLPC fed in chow (U.S. Pat. No. 5,284,835)
[1] = humans, oral route of administration
NASH = details: patients with biopsy proven NASH, oral vitamin E supplementation
steatosis = details: vitamin E 400-1000 IU/day for 4-10 months

Row | SMILES | liver fibrosis (liver fibrosis) | clinical effect [1] | liver histology outcome (NASH) | mean AST levels after treatment (steatosis; decreased from 104.+−.61 IU/L, P<0.002) | mean ALT levels after treatment (steatosis; decreased from 175.+−.106 IU/L, P<0.01)
1 | CCCCCCCCCCCC(=O)OC[C@H](COP(=O)([O-])OCC[N+](C)(C)C)OC(=O)CCCCCCCCCCC [DLPC, 1,2-dilauroyl-sn-glycero-3-phosphocholine] | slow liver fibrosis | no significant clinical effect |  |  | 
2 | Cc1c(C)c2c(c(C)c1O)CC[C@@](C)(CCC[C@H](C)CCC[C@H](C)CCCC(C)C)O2 [vitamin E, Alpha-tocopherol] |  |  | improvement in hepatic steatosis and lobular inflammation but not portal inflammation or fibrosis | 33.+−.11 IU/L | 40.+−.26 IU/L
